Where a name gives a salt, the structure may show the parent alone.
In the case of `Cl.Cl.O=C(CC1CCN(Cc2ccc(F)cc2)CC1)c1ccc2c(c1)CCN(Cc1ccccc1)CC2`, the melting point is reported as 243 to 247 °C (dec.).

In the case of `Cl.Cl.O=C(CCCC1CCN(Cc2ccccc2)CC1)c1ccc2c(c1)CCN(Cc1ccccc1)CC2`, the melting point is reported as 220 to 222 °C (dec.).

In the case of `Cl.Cl.O=C(CCCC1CCN(Cc2ccc(F)cc2)CC1)c1ccc2c(c1)CCN(Cc1ccccc1)CC2`, the melting point is reported as 226 to 229 °C (dec.).

Work on `Cc1ccc(CN2CCC(CC(=O)c3ccc4c(c3)CCN(Cc3ccccc3)CC4)CC2)cc1.Cl.Cl` yielded a melting point of 229 to 233 °C.

In the case of `Cc1ccccc1CN1CCC(CCCC(=O)c2ccc3c(c2)CCN(Cc2ccccc2)CC3)CC1.Cl.Cl`, the melting point is reported as 226 to 229 °C (dec.).

In the case of `Cc1cccc(CN2CCC(CCCC(=O)c3ccc4c(c3)CCN(Cc3ccccc3)CC4)CC2)c1.Cl.Cl`, the melting point is reported as 222 to 225 °C (dec.).

For `Cc1ccc(CN2CCC(CCCC(=O)c3ccc4c(c3)CCN(Cc3ccccc3)CC4)CC2)cc1.Cl.Cl`, the melting point was 207 to 210 °C (dec.).

In the case of `Cc1ccccc1CN1CCc2ccc(C(=O)CCCC3CCN(Cc4ccc(F)cc4)CC3)cc2CC1.Cl.Cl`, the melting point is reported as 197 to 200 °C.

With `Cc1ccc(CN2CCC(CCCC(=O)c3ccc4c(c3)CCN(Cc3ccc([N+](=O)[O-])cc3)CC4)CC2)cc1.Cl.Cl` the melting point was 208 to 211 °C.

With `Cc1ccc(CN2CCC(CCCC(=O)c3ccc4c(c3)CCN(Cc3ccc(C#N)cc3)CC4)CC2)cc1.Cl.Cl` the melting point was 206 to 209 °C (dec.).

`CC(=O)N1CCc2ccc(C(=O)CCCC3CCN(Cc4ccccc4C)CC3)cc2CC1.Cl` showed a melting point of 93 to 94 °C.

`Cl.O=C(CCC1CCN(C(=O)c2ccccc2)CC1)c1ccc2c(c1)CCN(Cc1ccccc1)CC2` gave a melting point of 118 to 121 °C.

In the case of `COc1ccc(CN2CCc3cc(C(=O)CCC4CCN(Cc5ccccc5)CC4)ccc32)cc1.O=C(O)/C=C/C(=O)O`, the melting point is reported as 95 to 98 °C.

Work on `CC(=O)N1CCC(CCC(=O)c2ccc3c(c2)CN(Cc2ccccc2)c2ccccc2CC3)CC1.Cl` yielded a melting point of 155 to 158 °C.

`CC(=O)N1CCC(CCC(=O)c2ccc3c(c2)CN(Cc2ccc(F)cc2)CCO3)CC1.Cl` showed a melting point of 186 to 188 °C.

`COc1ccc(CN2CCc3ccc(C(=O)CCC4CCN(C(=O)c5ccc(-c6ccccc6)cc5)CC4)cc3CC2)cc1.Cl` showed a melting point of 212 to 215 °C.

`O=C(CCC1CCN(Cc2cccnc2)CC1)c1ccc2c(c1)CN(Cc1ccccc1)CCO2` (as salt: hydrochloride) gave a melting point of 228 to 230 °C.

For `CCOC(=O)C1(C(=O)OCC)Oc2ccc(CN3CCC(CCC(=O)c4ccc5c(c4)CN(Cc4ccc(F)cc4)CCO5)CC3)cc2O1` (as salt: hydrochloride), the melting point was 199 °C (dec.).

In the case of `O=C(O)COc1cccc(CN2CCC(CCC(=O)c3ccc4c(c3)CN(Cc3ccc(F)cc3)CCO4)CC2)c1` (as salt: hydrochloride), the melting point is reported as 201 to 204 °C.

With `CC(c1ccccc1)N1CCC(CCC(=O)c2ccc3c(c2)CN(Cc2ccc(F)cc2)CCO3)CC1` (stereo not drawn) (as salt: hydrochloride) the melting point was 235 to 237 °C.

Work on `O=C(CCC1CCN(Cc2ccncc2)CC1)c1ccc2c(c1)CN(Cc1ccccc1)CCO2` (as salt: hydrochloride) yielded a melting point of 243 to 245 °C.

Compound `Cc1cccc(CN2CCC(CCCC(=O)c3ccc4c(c3)CCN(Cc3ccccc3C)CC4)CC2)c1` (as salt: hydrochloride) has a melting point of 179 to 182 °C.

`O=C(CCC1CCN(Cc2cccc(C(F)(F)F)c2)CC1)c1ccc2c(c1)CN(Cc1ccccc1)CCO2` (as salt: hydrochloride) gave a melting point of 235 to 237 °C.

For `O=C(CCC1CCN(Cc2ccc(C(F)(F)F)cc2)CC1)c1ccc2c(c1)CN(Cc1ccccc1)CCO2` (as salt: hydrochloride), the melting point was 239 to 241 °C.

With `Cc1ccccc1CN1CCc2ccc(C(=O)CCCC3CCN(Cc4ccccc4Cl)CC3)cc2CC1` (as salt: hydrochloride) the melting point was 165 to 168 °C.

Work on `O=C(CCC1CCN(Cc2ccc3c(c2)OCO3)CC1)c1ccc2c(c1)CN(Cc1ccccc1)CCO2` (as salt: hydrochloride) yielded a melting point of 233 to 235 °C.

For `O=C(CCCC1CCN(Cc2cccc(Cl)c2)CC1)c1ccc2c(c1)CCN(Cc1ccccc1)CC2` (as salt: hydrochloride), the melting point was 230 to 234 °C (dec.).

With `O=C(CCCC1CCN(Cc2cccc(F)c2)CC1)c1ccc2c(c1)CCN(Cc1ccccc1)CC2` (as salt: hydrochloride) the melting point was 245 to 248 °C (dec.).

For `O=C(CCCC1CCN(Cc2ccc([N+](=O)[O-])cc2)CC1)c1ccc2c(c1)CCN(Cc1ccccc1)CC2` (as salt: hydrochloride), the melting point was 242 to 247 °C (dec.).

With `O=C(CCC1CCN(Cc2cc([N+](=O)[O-])cc([N+](=O)[O-])c2)CC1)c1ccc2c(c1)CN(Cc1ccccc1)CCO2` (as salt: hydrochloride) the melting point was 232 °C (dec.).

Compound `O=C(CCC1CCN(Cc2cc(F)cc(F)c2)CC1)c1ccc2c(c1)CN(Cc1ccccc1)CCO2` (as salt: hydrochloride) has a melting point of 241 to 243 °C.

In the case of `COC(=O)c1ccc(CN2CCC(CCCC(=O)c3ccc4c(c3)CCN(Cc3ccccc3)CC4)CC2)cc1` (as salt: hydrochloride), the melting point is reported as 239 to 244 °C (dec.).

Compound `CS(=O)(=O)Nc1cccc(CN2CCC(CCCC(=O)c3ccc4c(c3)CCN(Cc3ccccc3)CC4)CC2)c1` (as salt: hydrochloride) has a melting point of 158 to 164 °C.

`Cc1cccc(CN2CCc3ccc(C(=O)CCCC4CCN(Cc5ccc(F)cc5)CC4)cc3CC2)c1` (as salt: hydrochloride) gave a melting point of 209 to 212 °C.

In the case of `Cc1ccc(CN2CCC(CCCC(=O)c3ccc4c(c3)CCN(Cc3cccc([N+](=O)[O-])c3)CC4)CC2)cc1` (as salt: hydrochloride), the melting point is reported as 172 to 174 °C.

Compound `Cc1ccc(CN2CCC(CCCC(=O)c3ccc4c(c3)CCN(Cc3ccccc3Cl)CC4)CC2)cc1` (as salt: hydrochloride) has a melting point of 174 to 178 °C.

With `Cc1ccc(CN2CCC(CCCC(=O)c3ccc4c(c3)CCN(Cc3ccc(Cl)cc3)CC4)CC2)cc1` (as salt: hydrochloride) the melting point was 230 to 234 °C.

For `O=C(CCC1CCNCC1)c1ccc2c(c1)CN(Cc1ccc(F)cc1)CCC2` (as salt: hydrochloride), the melting point was 245 to 247 °C.

With `O=C(CCC1CCN(Cc2cccc(C(F)(F)F)c2)CC1)c1ccc2c(c1)CN(Cc1ccc(F)cc1)CCC2` (as salt: hydrochloride) the melting point was 197 to 199 °C.

For `COC(=O)c1ccccc1CN1CCc2ccc(C(=O)CCCC3CCN(Cc4ccccc4C)CC3)cc2CC1` (as salt: hydrochloride), the melting point was 111 to 113 °C.

`O=C(CCCC1CCN(Cc2ccccc2Cl)CC1)c1ccc2c(c1)CCN(Cc1ccc(F)cc1F)CC2` (as salt: hydrochloride) gave a melting point of 193 to 196 °C.

`Cc1ccccc1CN1CCC(CCCC(=O)c2ccc3c(c2)CCN(Cc2ccc(F)cc2F)CC3)CC1` (as salt: hydrochloride) showed a melting point of 208 to 210 °C.

`CC(=O)Nc1ccccc1CN1CCC(CCCC(=O)c2ccc3c(c2)CCN(Cc2ccccc2C)CC3)CC1` (as salt: hydrochloride) showed a melting point of 172 to 178 °C.

In the case of `Cc1ccccc1CN1CCc2ccc(C(=O)CCCC3CCN(Cc4ccccc4N)CC3)cc2CC1` (as salt: hydrochloride), the melting point is reported as 230 to 235 °C.

With `Cc1ccccc1CN1CCc2ccc(C(=O)CCCC3CCN(Cc4ccccc4NS(C)(=O)=O)CC3)cc2CC1` (as salt: hydrochloride) the melting point was 185 to 195 °C (dec.).

`COC(=O)c1ccccc1CN1CCC(CCCC(=O)c2ccc3c(c2)CCN(Cc2ccccc2C)CC3)CC1` (as salt: hydrochloride) showed a melting point of 189 to 192 °C.

In the case of `O=C(CCC1CCNCC1)c1ccc2c(c1)CCN(Cc1ccc(F)cc1)CC2` (as salt: hydrochloride), the melting point is reported as 225 to 227 °C (dec.).

For `COc1ccc(CN2CCC(CCC(=O)c3ccc4c(c3)CCN(Cc3ccc(F)cc3)CC4)CC2)cc1` (as salt: hydrochloride), the melting point was 235 to 238 °C (dec.).

`COc1ccc(CN2CCC(CCC(=O)c3ccc4c(c3)CCN(Cc3ccc(F)cc3)CC4)CC2)cc1OC` (as salt: hydrochloride) showed a melting point of 199 to 203 °C.

`O=C(CCC1CCN(Cc2ccccc2)CC1)c1ccc2c(c1)CCN(Cc1ccc(F)cc1)CC2` (as salt: hydrochloride) gave a melting point of 217 to 220 °C.

For `CC(C)(C)c1ccc(CN2CCC(CCC(=O)c3ccc4c(c3)CCN(Cc3ccc(F)cc3)CC4)CC2)cc1` (as salt: hydrochloride), the melting point was 230 to 236 °C (dec.).

With `CCOC(=O)c1ccc(CN2CCC(CCC(=O)c3ccc4c(c3)CCN(Cc3ccc(F)cc3)CC4)CC2)cc1` (as salt: hydrochloride) the melting point was 212 to 218 °C (dec.).

Work on `Cc1ccc(CN2CCC(CCC(=O)c3ccc4c(c3)CN(Cc3ccccc3)CCO4)CC2)cc1` (as salt: hydrochloride) yielded a melting point of 236 to 238 °C.

`O=C(CCC1CCN(Cc2ccc(O)cc2)CC1)c1ccc2c(c1)CCN(Cc1ccc(F)cc1)CC2` (as salt: hydrochloride) gave a melting point of 166 to 169 °C.

Compound `O=C(CCC1CCN(Cc2ccccc2F)CC1)c1ccc2c(c1)CN(Cc1ccccc1)CCO2` (as salt: hydrochloride) has a melting point of 242 to 244 °C.

With `O=C(CCC1CCN(Cc2cccc(F)c2)CC1)c1ccc2c(c1)CN(Cc1ccccc1)CCO2` (as salt: hydrochloride) the melting point was 241 to 243 °C.

For `O=C(CCC1CCN(Cc2cccc(C(F)(F)F)c2)CC1)c1ccc2c(c1)CN(Cc1ccc(F)cc1)CCO2` (as salt: hydrochloride), the melting point was 225 to 227 °C.

In the case of `O=C(CCC1CCN(Cc2ccccc2Cl)CC1)c1ccc2c(c1)CN(Cc1ccc(F)cc1)CCO2` (as salt: hydrochloride), the melting point is reported as 227 to 229 °C.

`O=C(CCC1CCN(Cc2ccccc2C(F)(F)F)CC1)c1ccc2c(c1)CN(Cc1ccc(F)cc1)CCO2` (as salt: hydrochloride) showed a melting point of 203 to 204 °C.

`Cc1ccc(CN2CCC(CCC(=O)c3ccc4c(c3)CN(Cc3ccc(F)cc3)CCO4)CC2)cc1` (as salt: hydrochloride) showed a melting point of 240 to 242 °C.

With `O=C(CCC1CCN(Cc2ccccn2)CC1)c1ccc2c(c1)CN(Cc1ccccc1)CCO2` (as salt: hydrochloride) the melting point was 238 to 240 °C.

In the case of `COc1ccc(CN2CCc3ccc(C(=O)CCC4CCN(Cc5ccc(F)cc5)CC4)cc3CC2)cc1` (as salt: hydrochloride), the melting point is reported as 218 to 226 °C (dec.).

With `COc1ccc(CN2CCc3ccc(C(=O)CCC4CCN(Cc5ccc(-c6ccccc6)cc5)CC4)cc3CC2)cc1` (as salt: hydrochloride) the melting point was 220 to 225 °C (dec.).

— US6534496B1, “Thermogenic composition and benzazepine thermogenics” (Takeda Chemical Industries, Inc., priority 1997, dated 2003)
